Reference: US11622991B2, “Protocol for treatment of lupus nephritis” (Aurinia Pharmaceuticals Inc., priority 2017, dated 2023)
Read-outs that look alike come from different tables or passages of the source.

What was measured:
lupus nephritis [1] = experiment: Predictability of week 48 partial remission from early C3/C4 normalization (Table 12); format: in vivo, human
Text: (§1) PR is defined as at least 50% reduction in proteinuria (i.e. UPCR).
(§2) Sensitivity is defined as the probability that a subject showing PR at 48 weeks would have shown a favorable result with regard to the marker at the designated early time point. In the tables below, this is the ratio of the number of subjects with favorable marker results (early drop or normalization) to the total subjects with 48 week PR.
(§3) Specificity is defined as the probability that a subject not showing PR at 48 weeks would have shown an unfavorable result with regard to the marker at the designated early time point. In the tables below, this is the ratio of the number of subjects with unfavorable marker results (no early drop or no normalization) to the total subjects with no 48 week PR.
(§4) Positive predictive value is defined as the probability that a subject showing a favorable result with respect to the marker at an earlier time point would show PR at 48 weeks. In the tables below, this is the ratio of the number of subjects with favorable marker results who have 48 week PR to those with favorable marker results (early reduction or yes column).
(§5) Negative predictive value is defined as the probability that a subject showing an unfavorable result with respect to the marker at an earlier time point would not show PR at 48 weeks. In the tables below, this is the ratio of the number of subjects with unfavorable marker results who have no PR at 48 weeks to the total subjects with unfavorable marker results (no early reduction or no column).
(§6) Another criterion for effectiveness is normalization of C3 and/or C4 concentration in blood. The normal concentration of C3 is 90 mg/dl or greater and for C4 16 mg/dl or greater.

lupus nephritis [2] = experiment: Predictability from early reduction in UPCR or C3/C4 normalization combined at 12 weeks (Tables 13-17); format: in vivo, human
Text: as §1, §2, §3, §4
as §5, with “column). […]” for “column).”

lupus nephritis [3] = experiment: Probability of attaining CR by proteinuria depending on UPCR reduction of 25% at 8 weeks (Tables 9a, 9b); format: in vivo, human
lupus nephritis [4] = settings: cited from earlier work
lupus nephritis [5] = experiment: Predictability of week 48 partial remission from early C4 normalization (Table 11); format: in vivo, human
Text: as §1, §2, §3, §4, §5, §6

lupus nephritis [6] = experiment: 48 week study of LN treatment: complete and partial remission; format: in vivo, human; settings: for patients showing complete remission (CR) / patients showing partial remission (PR): 24 weeks
Method: The study was conducted over a period of 48 weeks and safety was evaluated at 24 weeks.
Subjects were screened prior to admission to the study by (a) determining that the urine protein creatinine ratio (UPCR) as >1.5 mg/mg as measured by first morning void, and (b) that the eGFR as measured by Chronic Kidney Disease Epidemiology Collaboration equation (CKD-EP1) of >45 ml/min/1.73 m^2. Subjects were assessed after 24 weeks and 48 weeks as well as a subsequent evaluation at 50 weeks.
PR is a composite end-point that includes safety and efficacy: UPCR reduction of 50% from baseline and no use of rescue medication

[7] = Early 25% reduction in UPCR or C3/C4 normalization, Week 12, 23.7 mg BID, number of patients
[8] = Early 25% reduction in UPCR or C3/C4 normalization, Week 12, 39.5 mg BID, number of patients
[9] = Early 25% reduction in UPCR or C3/C4 normalization, Week 24, 23.7 mg BID, number of patients
[10] = Early 25% reduction in UPCR or C3/C4 normalization, Week 48, 23.7 mg BID, number of patients
[11] = Early 30% reduction in UPCR or C3/C4 normalization, Week 12, 23.7 mg BID, number of patients
[12] = Early 30% reduction in UPCR or C3/C4 normalization, Week 12, 39.5 mg BID, number of patients
[13] = Early 30% reduction in UPCR or C3/C4 normalization, Week 24, 23.7 mg BID, number of patients
[14] = Early 30% reduction in UPCR or C3/C4 normalization, Week 48, 23.7 mg BID, number of patients
[15] = Early 30% reduction in UPCR or C3/C4 normalization, Week 48, 39.5 mg BID, number of patients
[16] = Early 35% reduction in UPCR or C3/C4 normalization, Week 12, 23.7 mg BID, number of patients
[17] = Early 35% reduction in UPCR or C3/C4 normalization, Week 12, 39.5 mg BID, number of patients
[18] = Early 35% reduction in UPCR or C3/C4 normalization, Week 24, 23.7 mg BID, number of patients
[19] = Early 35% reduction in UPCR or C3/C4 normalization, Week 48, 23.7 mg BID, number of patients
[20] = Early 35% reduction in UPCR or C3/C4 normalization, Week 48, 39.5 mg BID, number of patients
[21] = early 15% reduction in UPCR or C3/C4 normalization, week 12, 23.7 mg BID
[22] = early 15% reduction in UPCR or C3/C4 normalization, week 12, 39.5 mg BID
[23] = early 15% reduction in UPCR or C3/C4 normalization, week 24, 23.7 mg BID
[24] = early 15% reduction in UPCR or C3/C4 normalization, week 24, 39.5 mg BID
[25] = early 15% reduction in UPCR or C3/C4 normalization, week 48, 23.7 mg BID
[26] = early 15% reduction in UPCR or C3/C4 normalization, week 48, 39.5 mg BID
[27] = early 20% reduction in UPCR or C3/C4 normalization, week 12, 23.7 mg BID
[28] = early 20% reduction in UPCR or C3/C4 normalization, week 12, 39.5 mg BID
[29] = early 20% reduction in UPCR or C3/C4 normalization, week 24, 23.7 mg BID
[30] = early 20% reduction in UPCR or C3/C4 normalization, week 24, 39.5 mg BID
[31] = early 20% reduction in UPCR or C3/C4 normalization, week 48, 23.7 mg BID
[32] = early 20% reduction in UPCR or C3/C4 normalization, week 48, 39.5 mg BID
[33] = high dosage 39.5 mg BID with MMF and corticosteroids
[34] = low dosage 23.7 mg BID with MMF and corticosteroids

## C=C/C=C/C[C@@H](C)[C@@H](O)[C@H]1C(=O)N[C@@H](CC)C(=O)N(C)CC(=O)N(C)[C@@H](CC(C)C)C(=O)N[C@@H](C(C)C)C(=O)N(C)[C@@H](CC(C)C)C(=O)N[C@@H](C)C(=O)N[C@H](C)C(=O)N(C)[C@@H](CC(C)C)C(=O)N(C)[C@@H](CC(C)C)C(=O)N(C)[C@@H](C(C)C)C(=O)N1C [voclosporin]
Lupus nephritis [1]; week 12, 23.7 mg BID
  Normalization Yes: 26
Lupus nephritis [1]; week 12, 39.5 mg BID
  No Week 48 Partial Remission No Normalization: 10
  No Week 48 Partial Remission Normalization: 7
  Week 48 Partial Remission No Normalization: 33
  Week 48 Partial Remission Normalization: 29
Lupus nephritis [1]; week 24, 23.7 mg BID
  No Week 48 Partial Remission No Normalization: 10
  No Week 48 Partial Remission Normalization: 4
  Normalization Yes: 27
Lupus nephritis [1]; week 24, 39.5 mg BID
  Normalization Yes: 31
Lupus nephritis [1]; week 48, 23.7 mg BID
  No Week 48 Partial Remission No Normalization: 8
  No Week 48 Partial Remission Normalization: 2
Lupus nephritis [1]; week 48, 39.5 mg BID
  No Week 48 Partial Remission No Normalization: 11
  Normalization Yes: 32
Lupus nephritis [2]; [7]
  No Week 48 Partial Remission, No Early Drop or Normal: 3
  Week 48 Partial Remission, No Early Drop or Normal: 2
Lupus nephritis [2]; [8]
  No Week 48 Partial Remission, No Early Drop or Normal: 3
  Week 48 Partial Remission, No Early Drop or Normal: 3
Lupus nephritis [2]; [9]
  Early Drop or Normal No: 1
  No Week 48 Partial Remission, No Early Drop or Normal: 1
Lupus nephritis [2]; Early 25% reduction in UPCR or C3/C4 normalization, Week 24, 39.5 mg BID, number of patients
  Early Drop or Normal No: 10
Lupus nephritis [2]; [10]
  Early Drop or Normal No: 1
  No Week 48 Partial Remission, Early Drop or Normal: 10
  No Week 48 Partial Remission, No Early Drop or Normal: 1
Lupus nephritis [2]; Early 25% reduction in UPCR or C3/C4 normalization, Week 48, 39.5 mg BID, number of patients
  No Week 48 Partial Remission, Early Drop or Normal: 10
Lupus nephritis [2]; [11]
  No Week 48 Partial Remission, No Early Drop or Normal: 3
  Week 48 Partial Remission, No Early Drop or Normal: 2
Lupus nephritis [2]; [12]
  Early Drop or Normal No: 7
  No Week 48 Partial Remission, No Early Drop or Normal: 3
  Week 48 Partial Remission, No Early Drop or Normal: 4
Lupus nephritis [2]; [13]
  Early Drop or Normal No: 1
  No Week 48 Partial Remission, No Early Drop or Normal: 1
Lupus nephritis [2]; Early 30% reduction in UPCR or C3/C4 normalization, Week 24, 39.5 mg BID, number of patients
  Early Drop or Normal No: 10
Lupus nephritis [2]; [14]
  Early Drop or Normal No: 2
  No Week 48 Partial Remission, Early Drop or Normal: 9
  No Week 48 Partial Remission, No Early Drop or Normal: 2
Lupus nephritis [2]; [15]
  Early Drop or Normal No: 8
  No Week 48 Partial Remission, Early Drop or Normal: 8
  No Week 48 Partial Remission, No Early Drop or Normal: 8
Lupus nephritis [2]; [16]
  Early Drop or Normal No: 9
  Week 48 Partial Remission, No Early Drop or Normal: 4
Lupus nephritis [2]; [17]
  Early Drop or Normal No: 9
  No Week 48 Partial Remission, No Early Drop or Normal: 3
Lupus nephritis [2]; [18]
  Early Drop or Normal No: 4
  No Week 48 Partial Remission, Early Drop or Normal: 10
  No Week 48 Partial Remission, No Early Drop or Normal: 4
Lupus nephritis [2]; Early 35% reduction in UPCR or C3/C4 normalization, Week 24, 39.5 mg BID, number of patients
  Early Drop or Normal No: 10
Lupus nephritis [2]; [19]
  Early Drop or Normal No: 3
  No Week 48 Partial Remission, Early Drop or Normal: 8
  No Week 48 Partial Remission, No Early Drop or Normal: 3
Lupus nephritis [2]; [20]
  Early Drop or Normal No: 9
  No Week 48 Partial Remission, Early Drop or Normal: 7
  No Week 48 Partial Remission, No Early Drop or Normal: 9
Lupus nephritis [2]; [21]
  Early Drop or Normal No: 2
  No Week 48 Partial Remission, No Early Drop or Normal: 1
  Week 48 Partial Remission, No Early Drop or Normal: 1
Lupus nephritis [2]; [22]
  No Week 48 Partial Remission, No Early Drop or Normal: 3
  Week 48 Partial Remission, No Early Drop or Normal: 3
Lupus nephritis [2]; [23]
  Early Drop or Normal No: 1
  No Week 48 Partial Remission, No Early Drop or Normal: 1
Lupus nephritis [2]; [24]
  Early Drop or Normal No: 9
  No Week 48 Partial Remission, No Early Drop or Normal: 4
Lupus nephritis [2]; [25]
  Early Drop or Normal No: 1
  No Week 48 Partial Remission, Early Drop or Normal: 10
  No Week 48 Partial Remission, No Early Drop or Normal: 1
Lupus nephritis [2]; [26]
  Early Drop or Normal No: 4
  No Week 48 Partial Remission, No Early Drop or Normal: 4
Lupus nephritis [2]; [27]
  Early Drop or Normal No: 3
  No Week 48 Partial Remission, No Early Drop or Normal: 2
  Week 48 Partial Remission, No Early Drop or Normal: 1
Lupus nephritis [2]; [28]
  No Week 48 Partial Remission, No Early Drop or Normal: 3
  Week 48 Partial Remission, No Early Drop or Normal: 3
Lupus nephritis [2]; [29]
  Early Drop or Normal No: 1
  No Week 48 Partial Remission, No Early Drop or Normal: 1
Lupus nephritis [2]; [30]
  Early Drop or Normal No: 9
  No Week 48 Partial Remission, No Early Drop or Normal: 4
Lupus nephritis [2]; [31]
  Early Drop or Normal No: 1
  No Week 48 Partial Remission, Early Drop or Normal: 10
  No Week 48 Partial Remission, No Early Drop or Normal: 1
Lupus nephritis [2]; [32]
  Early Drop or Normal No: 4
  No Week 48 Partial Remission, No Early Drop or Normal: 4
Lupus nephritis [3]; High Dose (39.5 mg BID)
  # of patients without UPCR reduction of ≥25% at 8 weeks: 12
Lupus nephritis [3]; Low Dose (23.7 mg BID)
  # of CRs by Proteinuria at 24 weeks: 29
  # of patients with UPCR reduction of ≥25% at 8 weeks: 64
  # of patients without UPCR reduction of ≥25% at 8 weeks: 16
Lupus nephritis [4]; 23.7 mg or 39.5 mg twice daily with MMF and reducing corticosteroid, 24 weeks and 48 weeks
  remission: successful complete or partial remission in a large number of patients
Lupus nephritis [4]; 23.7 mg twice daily with MMF and reducing corticosteroid dose, 24 weeks
  remission: complete remission or partial remission in a large percentage of subjects
Lupus nephritis [5]; week 12, 23.7 mg BID
  No Week 48 Partial Remission No Normalization: 8
  No Week 48 Partial Remission Normalization: 10
Lupus nephritis [5]; week 12, 39.5 mg BID
  No Week 48 Partial Remission No Normalization: 9
  No Week 48 Partial Remission Normalization: 8
  Normalization No: 31
  Normalization Yes: 48
Lupus nephritis [5]; week 24, 23.7 mg BID
  No Week 48 Partial Remission Normalization: 8
  Normalization No: 31
  Week 48 Partial Remission Normalization: 32
Lupus nephritis [5]; week 48, 23.7 mg BID
  Normalization No: 31
  Week 48 Partial Remission Normalization: 29
Lupus nephritis [5]; week 48, 39.5 mg BID
  No Week 48 Partial Remission No Normalization: 11
Lupus nephritis [6]; [33]
  patients showing complete remission (CR): 27%
  patients showing partial remission (PR): 66%
Lupus nephritis [6]; [34]
  patients showing complete remission (CR): 32.6%
  patients showing partial remission (PR): 70%
Lupus nephritis [6]; 48 weeks, low dosage 23.7 mg BID with MMF and corticosteroids
  subjects showing complete remission (CR): 49%
